Reference: patent EP4431512A1, “NOVEL DUAL NK-1/NK-3 RECEPTOR ANTAGONISTS” (Bayer Consumer Care AG, priority 2023, dated 2024)

Tests used:
Human NK3 receptor [1] = target: T1, Human NK3 receptor (Homo sapiens, UniProt P29371); experiment: NK3 receptor binding assay (antagonist radioligand, scintillation counting); parameters: expressed in transfected cells; host or cells: CHO cells (membrane preparations); details: for nH: NK3(h) (antagonist radioligand), Hill coefficient of competition curve; for binding affinities: result in words, human NK3 receptors
T1 sequence (P29371 1-465): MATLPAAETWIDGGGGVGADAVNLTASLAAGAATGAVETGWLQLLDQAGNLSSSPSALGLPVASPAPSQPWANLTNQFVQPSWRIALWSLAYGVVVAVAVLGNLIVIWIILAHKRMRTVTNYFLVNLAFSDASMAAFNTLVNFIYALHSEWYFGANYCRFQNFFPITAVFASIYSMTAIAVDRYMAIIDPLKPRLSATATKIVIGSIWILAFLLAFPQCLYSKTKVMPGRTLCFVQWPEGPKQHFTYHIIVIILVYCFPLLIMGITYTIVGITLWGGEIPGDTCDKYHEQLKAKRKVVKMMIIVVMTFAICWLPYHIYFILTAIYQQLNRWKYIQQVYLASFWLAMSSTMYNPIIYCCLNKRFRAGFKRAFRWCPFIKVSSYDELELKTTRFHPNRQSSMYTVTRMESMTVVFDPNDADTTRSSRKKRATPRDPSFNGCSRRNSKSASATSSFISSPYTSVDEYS
Experimental: Compound binding was calculated as a %-inhibition of the binding of a radioactively labeled ligand specific for each target.
NK3 receptor binding affinities of the compounds of the invention were determined by an scintillation counting and using membrane preparations of CHO cells recombinantly expressing human NK3 receptors (as described by Sarau, H.M. et al. (1997), J. Pharmacol. Exp. Ther., 281: 1303-1311).
The results are expressed as a percent of control specific binding (measured specific binding)/(control specific binding)*100 [formula] and as a percent inhibition of control specific binding 100−((measured specific binding)/(control specific binding)*100) [formula] obtained in the presence of the test compounds.
The IC50 values (concentration causing a half-maximal inhibition of control specific binding) and Hill coefficients (nH) were determined by non-linear regression analysis of the competition curves generated with mean replicate values using Hill equation curve fitting Y = D + [(A−D)/(1 + ((C/C50))^nH)] [formula] where Y = specific binding, A = left asymptote of the curve, D = right asymptote of the curve, C = compound concentration, C50 =IC50, and nH = slope factor. This analysis was performed using software developed at Cerep (Hill software) and validated by comparison with data generated by the commercial software SigmaPlot® 4.0 for Windows® (^© 1997 by SPSS Inc.).
The inhibition constants (Ki) were calculated using the Cheng Prusoff equation Ki = (IC50)/((1+L/KD)) [formula] where L = concentration of radioligand in the assay, and KD = affinity of the radioligand for the receptor. A scatchard plot is used todetermine the KD.

NK1 receptors [2] = target: T2, NK1 receptors (Homo sapiens, UniProt P25103); experiment: NK1 receptor functional assay (antagonist effect, intracellular Ca2+, fluorimetry); type: cell-based; parameters: Human astrocytoma U373MG cells do endogenously express NK1 receptors; endogenous in cells; host or cells: U373MG human astrocytoma cells; details: result in words
T2 sequence (P25103 whole entry): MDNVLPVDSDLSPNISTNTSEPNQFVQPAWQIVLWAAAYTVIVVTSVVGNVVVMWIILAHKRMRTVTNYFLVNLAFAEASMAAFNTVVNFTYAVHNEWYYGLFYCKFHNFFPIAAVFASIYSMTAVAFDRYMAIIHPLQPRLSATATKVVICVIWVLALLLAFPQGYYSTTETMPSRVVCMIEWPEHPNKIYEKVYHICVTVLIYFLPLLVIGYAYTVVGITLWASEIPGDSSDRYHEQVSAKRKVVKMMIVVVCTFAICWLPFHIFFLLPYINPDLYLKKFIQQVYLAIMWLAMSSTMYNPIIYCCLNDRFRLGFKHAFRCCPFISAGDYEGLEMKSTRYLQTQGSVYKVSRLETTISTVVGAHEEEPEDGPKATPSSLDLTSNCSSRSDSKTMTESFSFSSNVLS
Experimental: (§1) Cellular antagonist effect was calculated as a %-inhibition of reference agonist response for each target.
Human NK1 receptor antagonistic activity assays were performed by measuring antagonistic effects of the compounds of the formula on the reduction agonist induced intracellular [Ca^2+] calcium concentrations in the human astrocytoma cell line U373MG using fluorimetric detection. Human astrocytoma U373MG cells do endogenously express NK1 receptors and were used in the assay according to Eistetter, H.R. et al. (1992), Glia, 6: 89-95 and [Sar^9,Met(O2)^11]-Substance P was used as agonistic stimulus of the NK1 receptor in the cells and assay. Relevant particulars of the assay are outlined in the table below.
(§2) For the antagonists, the apparent dissociation constants (KB ) were calculated using the modified Cheng Prusoff equation KB = (IC50)/(1 + (A/EC50A)) [formula] where A = concentration of reference agonist in the assay, and EC50A = EC50 value of the reference agonist.

NK1 receptors [3] = target: T2, NK1 receptors; experiment: NK1 receptor binding assay (agonist radioligand, scintillation counting); parameters: that is endogenously expressing human NK1 receptors; endogenous in cells; host or cells: U373 MG human astrocytoma cells (membrane preparations); details: NK1(h) (agonist radioligand); Hill coefficient of competition curve
From the text: A scatchard plot is used todetermine the KD.

Human NK3 receptor [4] = target: T1, Human NK3 receptor; experiment: NK3 receptor functional assay (antagonist effect, intracellular Ca2+, fluorimetry); type: cell-based; parameters: expressed in transfected cells; host or cells: CHO cells; details: result in words; human NK3 receptors
Experimental: as §1
Human NK3 receptor antagonistic activity was determined by measuring antagonistic effects of the compounds of the formula on the reduction of agonist induced intracellular [Ca^2+] concentrations in CHO cells recombinantly expressing […] using an fluorimetric detection method. The assay was adapted from Medhurst, A.D. et al. (1999), Brit. J. Pharmacol., 128: 627-636. As an agonist to induce intracellular [Ca^2+] [MePhe^7]-NKB was used as outlined in the overview table below.
as §2

Row | Structure (SMILES) | nH (Human NK3 receptor [1]) | binding affinities (Human NK3 receptor [1]) | antagonistic activities (NK1 receptors [2]) | nH (NK1 receptors [3]) | antagonistic activities (Human NK3 receptor [4])
1 | CC1CN2C[C@@H](CO)N(c3cc(-c4ccc(F)cc4CO)c(N(C)C(=O)C(C)(C)c4cc(C(F)(F)F)cc(C(F)(F)F)c4)cn3)C[C@H]2CO1 (stereo partly drawn) [compound of formula (III), 2-[3,5-bis(trifluoromethyl)phenyl]-N-{4-[4-fluoro-2-(hydroxymethyl)phenyl]-6-[(7S,9aS)-7-(hydroxymethyl)-3-methylhexahydropyrazino[2,1-c][1,4]oxazin-8(1H)-yl]pyridin-3-yl}-N,2-dimethylpropanamide] | 1 | significant | significant | 1 | significant
2 | Cc1cc(F)ccc1-c1cc(N2C[C@H]3COC(C)CN3C[C@H]2CO)ncc1N(C)C(=O)C(C)(C)c1cc(C(F)(F)F)cc(C(F)(F)F)c1 (stereo partly drawn) [compound of formula (IV), 2-[3,5-bis(trifluoromethyl)phenyl]-N-{4-(4-fluoro-2-methylphenyl)-6-[(7S,9aS)-7-(hydroxymethyl)-3-methylhexahydropyrazino[2,1-c][1,4]oxazin-8(1H)-yl]pyridin-3-yl}-N,2-dimethylpropanamide] | 1.3 | significant | significant | 1.2 | significant
3 | CN(C(=O)C(C)(C)c1cc(C(F)(F)F)cc(C(F)(F)F)c1)c1cnc(N2C[C@H]3COCCN3C[C@H]2CO)cc1-c1ccc(F)cc1CO [compound of formula (V), 2-[3,5-bis(trifluoromethyl)phenyl]-N-{4-[4-fluoro-2-(hydroxymethyl)phenyl]-6-[(7S,9aS)-7-(hydroxymethyl)hexahydropyrazino[2,1-c][1,4]oxazin-8(1H)-yl]pyridin-3-yl}-N,2-dimethylpropanamide] | – | significant | significant | – | significant
4 | Cc1cc(F)ccc1-c1cc(N2C[C@H]3COCC[N+]3([O-])C[C@H]2CO)ncc1N(C)C(=O)C(C)(C)c1cc(C(F)(F)F)cc(C(F)(F)F)c1 (stereo partly drawn) [compound of formula (II), N-[6-[(7S,9aS)-7-(hydroxymethyl)-5-oxido-3,4,6,7,9,9a-hexahydro-1H-pyrazino[2,1-c][1,4]oxazin-5-ium-8-yl]-4-(4-fluoro-2-methyl-phenyl)-3-pyridyl]-2-[3,5-bis(trifluoromethyl)phenyl]-N,2-dimethyl-propanamide] | – | significant | significant | – | significant
